Data set [1] is described as follows: Cytotoxicity, XTT method, MT-2 cells. In kind it is cell-based, human. The note with it: human, read-out: CC50 (μM) ± SD, cytotoxicity in MT-2 cells. The method, then: Cytotoxicity of peptides in MT-2 cells and PBMC was measured by the XTT [(sodium 3′-(1-(phenylamino)-carbonyl)-3,4-tetrazolium-bis(4-methoxy-6-nitro) bezenesulfonic acid hydrate)] method as previously described (Jiang et al., 2004). Briefly, for MT-2 cells, 100 μl of a peptide at graded concentrations was added to an equal volume of cells (1×10^5 cells/ml) in 96-well plates followed by incubation at 37° C. for 4 days, which ran parallel to the neutralization assay in MT-2 (except medium was added instead of virus). In the case of PBMC, 5×10^5 cells/ml were used and the cytotoxicity was measured after 7 days. After addition of XTT (PolySciences, Inc.), the soluble intracellular formazan was quantitated colorimetrically at 450 nm 4 hr later with a reference at 620 nm. The percent of cytotoxicity and the CC50 values were calculated as above (Table 2 and Table 3).

Data set [2] concerns HIV-1 IIIB. The following applies: read-out: IC50 (μM) ± SD, antiviral activity against HIV-1 IIIB; MT-2 cells, p24 production, fourth day post-infection. Here is the method:
The inhibitory activity of NYAD-201, and related stapled peptides on infection by laboratory-adapted HIV-1 strains was determined as previously described (Jiang et al. J Exp. Med 174:1557-1563, 1991) with minor modifications. Azidothymidine (AZT) was used as a positive control in the infectivity assays. In brief, 1×10^4 MT-2 cells were infected with HIV-1 at 100 TCID50 (50% tissue culture infective dose) (0.01 MOI [multiplicity of infection]) in 200 μl RPMI 1640 medium containing 10% FBS in the presence or absence of peptides at graded concentrations overnight. The culture supernatants were then removed and fresh media containing freshly prepared test peptide were added. On the fourth day post-infection, 100 μl of culture supernatants were collected from each well, mixed with equal volume of 5% Triton X-100 and tested for p24 antigen by ELISA.
In addition, NYAD-201, NYAD-202 and NYAD-203 were also tested using several laboratory-adapted and primary isolates in MT-2 cells and PBMC (peripheral blood mononuclear cells), respectively.

Bridge positions count the residues as written; N and C are the ends. Square brackets hold non-standard residues; d marks the D form. Peptide text beside a SMILES is read from it. R8 = C=CCCCCCC[C@@](C)(N)C(=O)O; S5 = C=CCCC[C@](C)(N)C(=O)O

`CSCC[C@H](NC(=O)[C@H](Cc1c[nH]c2ccccc12)NC(=O)[C@H](CC(N)=O)NC(=O)[C@H](CCCCN)NC(=O)[C@@H](NC(=O)[C@H](C)NC(=O)[C@H](CCC(N)=O)NC(=O)[C@H](C)N)C(C)C)C(=O)N[C@H](C(=O)N[C@@]1(C)CCCC=CCCC[C@@](C)(C(=O)N[C@@H](C)C(N)=O)NC(=O)[C@H](CC(C)C)NC(=O)[C@H](CC(C)C)NC(=O)[C@H]([C@@H](C)O)NC1=O)[C@@H](C)O` [NYAD-218, AQAVKNWMTXTLLXA] (H-AQAVKNWMT[S5]TLL[S5]A-NH2; staple 10-14): the CC50 (commonly the concentration that lowers cell viability or growth by half) at 4 days in data set [1] turned out to be 67.3 ± 4.4 µM. In addition, the IC50 (usually the concentration at which inhibition is half-maximal) in data set [2] was determined as 4.6 ± 0.4 µM.
For `CSCC[C@@H]1NC(=O)[C@H](Cc2c[nH]c3ccccc23)NC(=O)[C@@](C)(NC(=O)[C@H](CCCCN)NC(=O)[C@@H](NC(=O)[C@H](C)NC(=O)[C@H](CCC(N)=O)NC(=O)[C@H](C)N)C(C)C)CCCC=CCCC[C@@](C)(C(=O)N[C@H](C(=O)N[C@@H](CC(C)C)C(=O)N[C@@H](CC(C)C)C(=O)N[C@H](C(=O)N[C@@H](CCC(=O)O)C(=O)N[C@@H](CC(N)=O)C(=O)N[C@@H](C)C(N)=O)C(C)C)[C@@H](C)O)NC(=O)[C@H]([C@@H](C)O)NC1=O` [NYAD-212, AQAVKXWMTXTLLVENA] (H-AQAVK[S5]WMT[S5]TLLVENA-NH2; staple 6-10), in that order: > 102 µM and 5.95 ± 0.33 µM.
With `CC[C@H](C)[C@H](N)C(=O)N[C@@H](C)C(=O)N[C@@H](CCC(N)=O)C(=O)N[C@@H](C)C(=O)N[C@@H](CCCCN)C(=O)N[C@H](C(=O)N[C@@H](CCC(=O)O)C(=O)N[C@@]1(C)CCCC=CCCC[C@@](C)(C(=O)N[C@H](C(=O)N[C@@H](CC(C)C)C(=O)N[C@@H](CC(C)C)C(=O)N[C@H](C(=O)N[C@@H](C)C(=O)N[C@@H](CC(N)=O)C(N)=O)C(C)C)[C@@H](C)O)NC(=O)[C@H]([C@@H](C)O)NC(=O)[C@H](CCSC)NC(=O)[C@H](Cc2c[nH]c3ccccc23)NC1=O)C(C)C` [NYAD-223, IAQAKVEXWMTXTLLVAN] (H-IAQAKVE[S5]WMT[S5]TLLVAN-NH2; staple 8-12), the CC50 at 4 days in data set [1] is > 124 µM. The IC50 in data set [2] worked out at 7.2 ± 1.2 µM.
Regarding `CSCC[C@@H]1NC(=O)[C@H](Cc2c[nH]c3ccccc23)NC(=O)[C@@](C)(NC(=O)[C@H](CCCCN)NC(=O)[C@@H](NC(=O)[C@H](C)NC(=O)[C@H](CCC(N)=O)NC(=O)[C@H](C)N)C(C)C)CCCC=CCCC[C@@](C)(C(=O)N[C@H](C(=O)N[C@@H](CC(C)C)C(=O)N[C@@H](CCCCN)C(=O)N[C@H](C(=O)N[C@@H](C)C(=O)N[C@@H](CCC(=O)O)C(N)=O)C(C)C)[C@@H](C)O)NC(=O)[C@H](CCC(=O)O)NC1=O` [NYAD-220, AQAVKXWMEXTLKVAE] (H-AQAVK[S5]WME[S5]TLKVAE-NH2; staple 6-10), the CC50 at 4 days in data set [1] is > 105 µM. Further, in data set [2], the IC50 was > 52.7 µM.
For `CC(C)C[C@H](NC(=O)[C@H](CC(C)C)NC(=O)[C@@H](NC(=O)[C@]1(C)CCCC=CCCC[C@](C)(NC(=O)[C@H](CCCCN)NC(=O)[C@H](Cc2c[nH]c3ccccc23)NC(=O)[C@H](C)NC(=O)[C@H](CCC(N)=O)NC(=O)[C@H](C)N)C(=O)N[C@@H](Cc2c[nH]c3ccccc23)C(=O)N[C@@H](C)C(=O)N[C@@H]([C@@H](C)O)C(=O)N1)[C@@H](C)O)C(=O)N[C@H](C(=O)N[C@@H](C)C(=O)N[C@@H](CCC(=O)O)C(N)=O)C(C)C` [NYAD-219, AQAWKXWATXTLLVAE] (H-AQAWK[S5]WAT[S5]TLLVAE-NH2; staple 6-10), in that order: > 106 µM and 3.7 ± 0.06 µM.
For `CC(C)C[C@@H]1NC(=O)[C@H]([C@@H](C)O)NC(=O)[C@H](CCC(=O)O)NC(=O)[C@H]([C@@H](C)O)NC(=O)[C@H](C)NC(=O)[C@H](Cc2c[nH]c3ccccc23)NC(=O)[C@](C)(NC(=O)[C@H](CCCCN)NC(=O)[C@H](Cc2c[nH]c3ccccc23)NC(=O)[C@H](C)NC(=O)[C@H](CCC(N)=O)NC(=O)[C@H](C)N)CCCCCCC=CCCC[C@@](C)(C(=O)N[C@H](C(=O)N[C@@H](C)C(=O)N[C@@H](CC(N)=O)C(N)=O)C(C)C)NC1=O` [NYAD-222, AQAWKZWATETLXVAN] (H-AQAWK[R8]WATETL[S5]VAN-NH2; staple 6-13), in that order: > 130 µM and 9.3 ± 1.6 µM.
Regarding `CSCC[C@@H]1NC(=O)[C@H](CCCCN)NC(=O)[C@@](C)(NC(=O)[C@H](Cc2c[nH]c3ccccc23)NC(=O)[C@@H](NC(=O)[C@H](CC(C)C)NC(=O)[C@H](CCC(N)=O)NC(=O)[C@@H](N)CCC(=O)O)C(C)C)CCCC=CCCC[C@@](C)(C(=O)N[C@@H](C)C(=O)N[C@@H](CC(C)C)C(=O)N[C@@H](C)C(=O)N[C@H](C(=O)N[C@H](C(N)=O)[C@@H](C)O)C(C)C)NC(=O)[C@H]([C@@H](C)O)NC1=O` [NYAD-215, EQLVWXKMTXALAVT, reference compound] (H-EQLVW[S5]KMT[S5]ALAVT-NH2; staple 6-10), the half-maximal cytotoxic concentration (CC50) at 4 days in data set [1] was > 112 µM. Also, in data set [2], the IC50 was > 56 µM.
For the compound `CSCC[C@@H]1NC(=O)[C@H](Cc2c[nH]c3ccccc23)NC(=O)[C@@](C)(NC(=O)[C@H](CCCCN)NC(=O)[C@@H](NC(=O)[C@H](C)NC(=O)[C@H](CCC(N)=O)NC(=O)[C@H](C)N)C(C)C)CCCC=CCCC[C@@](C)(C(=O)N[C@H](C(=O)N[C@@H](CC(C)C)C(=O)N[C@@H](CC(C)C)C(=O)N[C@@H](CCCCN)C(=O)N[C@@H](C)C(=O)N[C@@H](CC(N)=O)C(=O)N[C@@H](C)C(=O)N[C@@H](CCC(=O)O)C(N)=O)[C@@H](C)O)NC(=O)[C@H]([C@@H](C)O)NC1=O` [NYAD-214, AQAVKXWMTXTLLKANAE] (H-AQAVK[S5]WMT[S5]TLLKANAE-NH2; staple 6-10), the CC50 at 4 days in data set [1] was > 48 µM. The IC50 in data set [2] is 17.4 ± 0.9 µM.
For `CSCC[C@@H]1NC(=O)[C@H](Cc2c[nH]c3ccccc23)NC(=O)[C@](C)(NC(=O)[C@H](CCCCN)NC(=O)[C@@H](NC(=O)[C@H](C)NC(=O)[C@H](CCC(N)=O)NC(=O)[C@H](C)N)C(C)C)CCCCCCC=CCCC[C@@](C)(C(=O)N[C@H](C(=O)N[C@@H](C)C(N)=O)C(C)C)NC(=O)[C@H](CC(C)C)NC(=O)[C@H]([C@@H](C)O)NC(=O)[C@H](CCC(=O)O)NC(=O)[C@H]([C@@H](C)O)NC1=O` [NYAD-221, AQAVKZWMTETLXVA] (H-AQAVK[R8]WMTETL[S5]VA-NH2; staple 6-13), the CC50 at 4 days in data set [1] is > 140 µM. The half-maximal inhibitory concentration (IC50) in data set [2] worked out at 7.97 ± 1.03 µM.

The values are drawn from patent publication US8933019B2, “Antiviral cell-penetrating peptides” (priority 2008, dated 2015).
